{
  "source": "paper PMC8330742",
  "about": "“New benzothieno[2,3-c]pyridines as non-steroidal CYP17 inhibitors: design, synthesis, anticancer screening, apoptosis induction, and in silico ADME profile studies” (Journal of Enzyme Inhibition and Medicinal Chemistry, 2021)",
  "key": {"CYP17 enzyme": {"test_system": "CYP17 enzyme", "assay": "CYP17 enzyme ELISA in mice prostate cancer model", "assay_type": "in vivo", "conditions": "5 mg/kg i.p., 5 days a week, ELISA of tissue (Mice testis)", "description": "(§1) A total of 16 mice from the TRAMP/FVB background ([…], male, average 45 days, average weight […], mice with prostate cancer) were taken and divided into 2 groups with 8 animals in each group. One group of mice was given a drug in 0.2 ml of DMSO and phosphate-buffered saline (1:10) ratio (5 mg/kg body weight, i.p., 5 days a week). The control group animals were treated with 0.2 ml of DMSO and phosphate-buffered saline (1:10) ratio. A total of eight mice, four animals from each group, were examined at 13 weeks of age, and the remaining animals from each group were examined at 20 weeks for prostate tumour development. Treatment was stopped 24 h before killing the animals.\nBioSource 2704060 96 assay kit is a sandwich enzyme immunoassay for in vitro quantitative measurement of CYP17 enzyme activity in mouse tissue homogenates, cell lysates, cell culture supernatant, and other biological fluids. Tested tissues were rinsed in ice-cold PBS to remove excess blood and weighed before homogenisation. The tissues were minced and homogenised in fresh lysis buffer with a glass homogeniser. (catalog: IS007, different lysis buffer needs to be chosen based on subcellular location of the target protein) (w:v = 1:20–1:50, e.g. 1 ml lysis buffer is added in 20–50 mg tissue sample) The resulting suspension was sonicated with an ultrasonic cell disrupter till the solution was clarified. The homogenates were centrifuged for 5 min at 10,000 × g, and the supernatant was collected. An Aliquot was assayed and stored at ≤ −20 °C.\nThe assay sample and standard were incubated together with CYP-HRP conjugate in an appropriate number of microplates pre-coated with an antibody specific for the CYP17 enzyme for 1 h. After the incubation period, the wells were decanted and washed five times. The wells were then incubated with a substrate for the HRP enzyme. […] Colour intensity was measured spectrophotometrically at 450 nm in a microplate reader. […]\nAssay procedures: Wells for a standard, blank, and sample were prepared. […] The absorbance was measured immediately at 450 nm."}, "plasma testosterone": {"test_system": "plasma testosterone", "assay": "Testosterone ELISA assay in mice prostate cancer model", "assay_type": "in vivo", "description": "as §1\nThe BioVendor mouse/rat testosterone ELISA assay is a competitive immunoassay for the measurement of testosterone in rat and mouse serum or plasma based on the principle of competitive binding. An unknown amount of testosterone present in the sample (plasma or serum) and a known amount of testosterone conjugated to horseradish peroxidase compete for the binding sites of testosterone antiserum coated to the wells of a microplate. The sample was incubated with the microplate for 1 h, then washed four times. The HRP substrate solution was added followed by the stop solution. Colour change has been observed, and the optical density was measured at 450 nm.\nAssay procedures: Sufficient number of microplate wells were prepared to accommodate standard and samples in duplicates. The standard, sample, and control (10 µL each) were dispensed with new disposable tips into appropriate wells. Incubation buffer 100 µL was dispensed into each well. Afterward, enzyme conjugate (50 µL) was added to each well and incubated for 60 min at room temperature on a microplate mixer. The content of the wells was discarded, and the wells were rinsed 4 times with diluted wash solution (300 µL per well). The substrate solution (200 µL) was added to each well and incubated in the dark without shaking for 30 min. The reaction was stopped by adding a stop solution (2 N hydrochloric acid solution, 50 µL) to each well. The absorbance of each well was determined at 450 nm."}, "PC-3 cells": {"test_system": "PC-3 cells", "assay": "Annexin V-FITC apoptosis assay", "assay_type": "cell-based, human", "conditions": "PC-3, 2.34 µM, 24 h", "description": "PC-3 cells were placed in a 6-well plate at 1 × 10^5 conc. of cells per well, then incubated for 24 h. Afterward, the cells were treated with 2.34 µM of compound 5c or (0.1% DMSO) for 24 h, then harvested, washed with PBS, and stained with annexin V-FITC and PI in binding buffer ([…], […], and […] at pH 7.4) for 15 min at room temperature in the dark, then analysed by the flow cytometer."}},
  "note": "Several values for one entry are separate records, joined by “and”; a condition that tells them apart may be missing. Identical values can stand only once.",
  "data": [
    {"compound": "N#CC1C(=O)NC(c2ccccc2[N+](=O)[O-])c2sc3c(F)cccc3c21", "note": "(centres unmarked) [Compound 5c, 4-Cyano-8-fluoro-1-(2-nitrophenyl)-1,2-dihydro[1]benzothieno[2,3-c] pyridin-3(4H)-one]", "values": [
      {"measurement": "CYP17 enzyme aver. conc.", "setting": "CYP17 enzyme", "result": "15.8 nM and 15.80 nM and 15.80 ± 0.20 nM"},
      {"measurement": "potency relative to abiraterone (testosterone inhibition)", "setting": "plasma testosterone", "result": 1.1, "unit": "folds"},
      {"measurement": "Plasma testosterone aver. conc.", "setting": "plasma testosterone; 5 mg/kg i.p., 5 days a week, ELISA, 5 mg/kg", "result": "12.26 nM and 12.26 ± 0.17 nM"},
      {"measurement": "Apoptosis total (% of cells)", "setting": "PC-3 cells", "result": 42.55, "unit": "%"},
      {"measurement": "Early apoptosis (% of cells)", "setting": "PC-3 cells", "result": 1.66, "unit": "%"},
      {"measurement": "Late apoptosis (% of cells)", "setting": "PC-3 cells", "result": 26.67, "unit": "%"},
      {"measurement": "Necrosis (% of cells)", "setting": "PC-3 cells", "result": 14.22, "unit": "%"},
      {"measurement": "elevation in necrosis vs control", "setting": "PC-3 cells", "result": 7.68, "unit": "fold"},
      {"measurement": "increase in early apoptotic cells vs control", "setting": "PC-3 cells", "result": 6.64, "unit": "fold"},
      {"measurement": "increase in late apoptotic cells vs control", "setting": "PC-3 cells", "result": 140.36, "unit": "fold"},
      {"measurement": "total increase vs control", "setting": "PC-3 cells", "result": 18.58, "unit": "fold"}
    ]}
  ]
}
